Assay results reported in patent publication US20210145768A1, “MODULATING IMMUNE RESPONSE VIA TARGETING OF OLFACTORY RECEPTOR ACTIVITY” (La Jolla Institute for Allergy and Immunology, priority 2018, published 2021).

Key:
Olfr2 [1] = target: T1, Olfr2 (Mus musculus, UniProt Q9QWU6); assay: Intracellular TNF staining in vascular macrophages and blood monocytes (flow cytometry); format: cell-based; set-up: Olfr2 expression was confirmed at the protein level on F4/80^+ vascular macrophages; from tissue; host or cells: explanted whole aortas, digested aortic cell suspensions (F4/80+ vascular macrophages) and blood monocytes of Apoe-/- C57BL/6J mice; living Apoe-/- mice for the in vivo study; conditions: octanal
T1 sequence (Q9QWU6 1-327): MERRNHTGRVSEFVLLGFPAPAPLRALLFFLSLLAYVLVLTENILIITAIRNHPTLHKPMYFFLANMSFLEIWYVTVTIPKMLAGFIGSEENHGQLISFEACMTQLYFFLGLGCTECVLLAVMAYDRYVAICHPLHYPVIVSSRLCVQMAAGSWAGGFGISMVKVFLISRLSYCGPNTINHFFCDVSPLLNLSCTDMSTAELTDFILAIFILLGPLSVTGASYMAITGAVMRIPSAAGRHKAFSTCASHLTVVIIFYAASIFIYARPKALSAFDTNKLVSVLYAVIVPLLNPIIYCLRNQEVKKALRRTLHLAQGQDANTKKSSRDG
Method: To assess the functional properties of Olfr2 in monocytes, cells were enriched form Apoe−/− mice blood by the negative selection. Purified monocytes were then incubated as described above. TNF expression (TNF-PE) was evaluate by intracellular staining protocol by flow cytometry. Classical and non-classical monocytes were divided as previously described (Live, CD115+, LyC6+, and LyC6− respectively). […] Data are presented as means±SEM. *p<0.05, **p<0.01, ***p<0.005, ****p<0.001. p calculated by One-Way ANOVA test, Tukey's multiple comparisons test.
Whole aortas and mouse blood leukocytes were incubated in culture medium with Oct, (10 μM), LPS, (500 ng/mL) alone or combined (LPS+Oct) for 12h at 37° C. and 5% CO2. The protein transport inhibitor cocktail 1× (eBioscience) was added for whole 12h in the whole aorta samples and for the last 6 hours in the mouse blood leukocyte samples. […]
Cells were then washed, fixed, permeabilized applying the Intracellular Fixation and Permeabilization Buffer Set (eBioscience), and stained with mouse anti-TNF-PE (eBioscience). Samples were analyzed with LSR-II (BD Biosciences). Data was acquired with FACSDiva software (BD Biosciences) and analyzed with FlowJo software (Treestar Inc).

Olfr2 [2] = target: T1, Olfr2; conditions: Olfr2 binding of medium-chain aliphatic aldehydes; cited from earlier work
Olfr2 [3] = target: T1, Olfr2; assay: Secreted cytokines in supernatants of stimulated aortas (cytokine bead array); format: cell-based; set-up: Olfr2 expression was confirmed at the protein level on F4/80^+ vascular macrophages; from tissue; host or cells: explanted whole aortas, digested aortic cell suspensions (F4/80+ vascular macrophages) and blood monocytes of Apoe-/- C57BL/6J mice; living Apoe-/- mice for the in vivo study; conditions: octanal 10 μM + LPS 500 ng/mL, 12 h, cytometric bead array
Method: Apoe^−/− mice were fed WD for 2 weeks before sacrifice for aorta explant culture. Whole aortas were incubated in culture medium with DMSO (0.1% as a vehicle), octanal (Oct, 10 μM), LPS (500 ng/mL) alone or octanal and LPS combined (LPS+Oct) for 12 h at 37° C. and 5% CO2. Subsequently, aortas were collected and further processed as below discussed for RNA extraction, and flow cytometry analysis. Culture supernatants were collected, aliquoted, and frozen at −80° C. until further analysis.
Supernatants of stimulated cells and aortic tissue were analyzed by BD CBA Flex Sets (BD Biosciences) for mouse TNFα, CCL2, CCL4, IL-1β, or human TNF, IL6, and IL-1β according to the manufacturer's protocol. Samples were analyzed with LSR-II (BD Biosciences). Data was acquired with FACSDiva software (BD Biosciences) and analyzed with FCAP array software 3.0 (BD Biosciences).

Olfr2 [4] = target: T1, Olfr2; assay: Inflammatory gene expression (real time PCR) in explanted whole aortas treated with octanal, citral, LPS; format: cell-based; set-up: Olfr2 expression was confirmed at the protein level on F4/80^+ vascular macrophages; from tissue; host or cells: explanted whole aortas, digested aortic cell suspensions (F4/80+ vascular macrophages) and blood monocytes of Apoe-/- C57BL/6J mice; living Apoe-/- mice for the in vivo study; conditions: dose response 3, 10, 30 μM octanal, 12 h

SMILES: CCCCCCCC=O [octanal]
- TNF expression in Ly6C+ and Ly6C− blood monocytes (Olfr2 [1]): boosted
- EC50 (Olfr2 [2]): ~10 µM
- secretion of TNF, CCL2 and CCL4 protein into supernatant of treated aortas (Olfr2 [3]): enhanced production
- secretion of TNF, CCL2 and CCL4 protein into supernatant of treated aortas (Olfr2 [3]; listed as Octanal): enhanced the secretion
- octanal concentration at which enhancement of LPS-induced expression peaks (Olfr2 [4]): 3 to 10 µM
